Reference: patent publication US20240423954A1, “Chlorthalidone Compositions And Methods” (Nivagen Pharmaceuticals, Inc., priority 2020, published 2024)

Assay: Initial experiments on chlorthalidone API in solution
Format: physicochemical
Settings: without excipients; would agglomerate and cake
Description: Accordingly, for stabilizing the chlorthalidone in a stabilized suspension, the inventors contemplated combining the chlorthalidone with select excipients. These excipients include at least a solubilizing and/or a wetting agent, at least one suspending agent, at least one viscosity increasing agent or at least one anti-caking agent, and water. The suspension may also further include an anti-foaming agent, at least one antimicrobial, and at least one sweetening agent.

- stability of the API in solution: not stable in solution
SMILES: NS(=O)(=O)c1cc(C2(O)NC(=O)c3ccccc32)ccc1Cl (stereo not shown) [chlorthalidone, Chlorthalidone]
